Consider one compound from patent US20250122253A1, “REGULATING MICROTUBULE DYNAMICS AS A THERAPEUTIC TARGET FOR NERVE REPAIR” (City University of Hong Kong, priority 2023, published 2025).

In one data set the test system is axotomized DRG neurons. Briefly: Neurite outgrowth assay in dissociated DRG cultures. The data set is classed as cell-based, mice. As to conditions: increasing dose; neurite outgrowth increased almost linearly. The protocol: Primary cultures of dissociated DRG neurons were prepared from adult male C57BL/6 or Fmn2^−/− mice (8-12 weeks old) and their age-matched WT littermates as described. Briefly, DRGs were dissected out from the mice and mildly digested in collagenase/dispase II (Roche Diagnostics) solution, trypsinized and mechanically dissociated using flame polished Pasteur pipettes with three different diameters. DRG neurons were incubated in full NB medium.
For ex vivo DRG explant culture, non-overlapping quadrant images were taken from each DRG explant, and total neurite length was measured using automated WIS-NeuroMath software (Weizmann Institute of Science). Data were obtained from at least 3 separate experiments with n=8 explants per dose. […] Total neurite length and average longest neurite length were quantified using automated WIS-NeuroMath software (Weizmann Institute of Science). Data was obtained from 3 independent experiments repeated in duplicates. βIII-tubulin-positive DRG neurons with intact neurites adjacent to the neuronal cell bodies were counted as healthy neurons for neurite outgrowth assay.

Data set [1] concerns motor function of injured hindlimb. The data set is described as follows: Toe spreading reflex (motor function recovery) after sciatic nerve crush. The data set is classed as in vivo, mice. The protocol: (§1) Adult male Fmn2^−/− mice (8-12 weeks old) and their age-matched WT littermates, or adult male C57BL/6 mice (for whole-body X-ray, AAV2/9-Fmn2-shRNA and metaxalone experiments) were trained and habituated one week before the sciatic nerve crush injury. After three independent training sessions (30 minutes per session with two days break), baseline values were taken, and sciatic nerve crush injury were performed one day after the baseline recordings. Function recovery was monitored for 30 days. On day 3 after the sciatic nerve crush, we first perform pinprick assay and followed by motor function assays every other day in a sequential manner (toe spreading, grip strength, and sciatic functional index) with 30 mins apart from each test. Animal behavioural tests were done blinded to the surgery and genotypes.
To assess toe spreading reflex following PNI, mice were covered by a piece of cotton, lifted up by the tails, and uncovered their hindlimbs for assessment. Toe spreading reflex was scored as follow: 0 for no spreading, 1 for intermediate spreading with all toes separated for less than 2 seconds, and 2 for full spreading with all toes completely and widely spread, and sustained for at least two seconds. Mice were scored only when a full response was observed on the contralateral side (uninjured hindlimbs). Mice were assessed twice with 30-minute time interval in between.
(§2) To examine the therapeutic potential of metaxalone, adult mice received daily intraperitoneal injection of metaxalone at 10 mg/kg immediately after injury for 21 consecutive days (i.e., metaxalone treatment) or delaying daily intraperitoneal injection of metaxalone at 10 mg/kg to 24 hours post-injury for 20 consecutive days (i.e., delayed metaxalone treatment), and all metaxalone treatments ended on day 21 post-injury. The mice were then subjected to sensory and motor function recovery tests and weekly EMG recordings for 28 days post-injury.

Another data set concerns hindlimb muscle strength. Briefly: Hindlimb grip strength measurement after sciatic nerve crush. Type of data set: in vivo, mice. As to conditions: from day 11 to 23. The protocol: as §1
Muscle strength from hindlimbs were measured using a grip strength meter (BIO-GS3, Bioseb). To measure the grip strength of both hindlimbs, their hindlimbs were positioned to grip a metal T-bar connected to the grip strength meter, while their forelimbs were rested on a plastic bar. The mice were then gently pulled off from the T-bar. The values at which the mouse left the T-bar reflected the grip strength in grams. The average grip strength was taken from at least 5 consecutive grip strength measurements per animal. […]

Data set [2] deals with gastrocnemius and interosseous muscles. Briefly: Electromyography (EMG) recording of CMAP amplitude. Type of data set: in vivo, mice. The protocol:
Electromyography (EMG) recording was performed on anesthetized mice as described. Briefly, mice were anesthetized with ketamine (100 mg/kg)/xylazine (10 mg/kg), and placed on a heat pad set to 37° C. to avoid hypothermia during the course of EMG recordings. Baseline EMG were recorded before sciatic nerve crush injury using custom-made monopolar Teflon-coated electrodes. Following sciatic nerve crush injury, EMG were recorded on a weekly basis for one month (days 7, 14, 21 and 28). For EMG recordings of proximal gastrocnemius muscle, recording electrode was inserted into the gastrocnemius muscle, and Achilles tendon electrode as a reference. For EMG recordings of distal interosseous muscle, recording electrode and reference electrode was inserted into first and fourth muscle of the same paw, respectively. Sciatic nerve was then stimulated proximally or distally, and both proximal and distal stimulations were used for CMAP of interosseous muscle. Only proximal stimulation was used for CMAP of the gastrocnemius muscle. The mean CMAP amplitude was recorded (Blackrock microsystem, USA) and calculated (Spike 2, UK).
as §2

For data set [3] the following is noted: cited from earlier work.
Where [4] appears, read: 10 mg/kg intraperitoneally immediately after PNI.

A word on the half-life: it is how long it takes for the measured level to halve.

On to `Cc1cc(C)cc(OCC2CNC(=O)O2)c1` (centres unmarked) [metaxalone], for which, in the data set with axotomized DRG neurons, the “concentration at which neurite outgrowth reaches a plateau” value is 20 µM. Also, the “additional time vs metaxalone-treated mice to recover 50% and to fully regain toe spreading reflex, delayed treatment” value in data set [1] (10 mg/kg intraperitoneally delayed to 24 hours post-injury) is 1 days. Besides, in data set [1] (setting [4]), the “time to fully regain toe spreading reflex” value came to 19 days and the “time to recover 50% of toe spreading reflex (reaching score 1)” value is recorded as 14 days. Also, in the data set on hindlimb muscle strength (immediate treatment 10 mg/kg), the “hindlimb grip strength recovery vs controls” value is given as “significantly higher”. In the data set with hindlimb muscle strength (treatment delayed 24 hours, 10 mg/kg), the “hindlimb grip strength recovery vs controls, delayed treatment” value is “significantly higher”. The “muscle activities in proximal gastrocnemius vs vehicle controls, delayed treatment” value in data set [2] (delayed treatment, week 1 to 3 post-injury) is “significant improvement”. Further, the “muscle activity in interosseous muscles vs vehicle controls, delayed treatment” value in data set [2] (delayed treatment, week 2-3 post-injury) is reported as “significant increase”. Further, in data set [2] (immediate treatment, first 3 weeks post-injury), the “muscle activity in most distal interosseous muscles vs vehicle controls” value was “reached significance levels”. Also, the “muscle activities in proximal gastrocnemius vs vehicle controls” value in data set [2] (immediate treatment, week 1 to 3 post-injury) is “significant improvement”. Also, the half-life in data set [3] is 9 h.
